According to patent US9770448B1, “Compositions and methods for treatment of Bowen's disease and related diseases” (priority 2016, dated 2017):

Experiments:
[1] = system: HPV- laryngeal keratinocytes; assay: In vitro chloroquine-induced killing of laryngeal keratinocytes (HPV-); type: cell-based, human; conditions: two days incubation, visual inspection for survival
From the text: (§1) In addition to the foregoing examples, in vitro experimental data have been obtained which indicate that the compositions and methods of the present disclosure can be used in the treatment of recurrent respiratory papillomatosis (RRPRRP) disease, which is also known as laryngeal papillomatosis. RRP is caused by human papillomavirus (HPV), typically HPV6 and HPV11, and involves formation of generally nonmalignant tumors on the larynx or vocal chords, and can spread to the trachea, bronchi and lungs. HPV^+ and HPV^− laryngeal keratinocytes obtained from a recurrent respiratory papillomatosis patient were expanded on Mitomycin C-treated J2 3T3 feeder cell layers in E media with 10 uM Y27632 (ROCK inhibitor). These cells were then plated without feeder layers in 2.5 uM Y27632 and grown until they reached 90% confluency. At this point, fresh E media without Y27632 was added to the cells with increasing concentrations of chloroquine. Chloroquine concentrations used were 0 ug/ml, 2.5 ug/ml, 25 ug/ml, 250 ug/ml, 2.5 mg/ml and 25 mg/ml. Chloroquine powder (Sigma) was resuspended at 25 mg/ml in E media and was brought to pH 7 with 1N NaOH. Working dilutions were made with full E media. Cells were incubated for two days in chloroquine and then visually inspected for survival, as noted by (a) the presence of cells in the wells and (b) morphology of the cells.

[2] = system: HPV+ laryngeal keratinocytes; assay: In vitro chloroquine-induced killing of laryngeal keratinocytes (HPV+); type: cell-based, human; conditions: two days incubation, visual inspection for survival
From the text: as §1

[3] = system: Bowen's disease; conditions: Example 10 patient history; cited from earlier work

SMILES | Chloroquine concentration that cells survived [1] | Chloroquine concentrations at which cells were killed [1] | Chloroquine concentration that cells survived [2] | Chloroquine concentrations at which cells were killed [2] | Outcome of earlier over the counter drug as stated by patient [3]
CCN(CC)CCCC(C)Nc1ccnc2cc(Cl)ccc12 (racemic) [chloroquine, (RS)—N′-(7-chloroquinolin-4-yl)-N,N-diethyl-pentane-1,4-diamine] | 25 µg/mL | ≥ 250 µg/mL | 25 µg/mL | ≥ 250 µg/mL | –
O=C(O)C(Cl)(Cl)Cl [TCA, trichloroacetic acid] | – | – | – | – | made the Bowen's disease Lesion worse
